In PMC9589189, “The human odorant receptor OR10A6 is tuned to the pheromone of the commensal fruit fly Drosophila melanogaster” (iScience, 2022) one finds EC50 data, which are given here for 3 molecules.

Holding throughout (experiment): GloSensor cAMP luminescence, HEK-293
Type in all cases: cell-based

Assay [1] addresses T1, OR2W1 (Homo sapiens, UniProt Q9Y3N9, M81V).
T1 construct: full coding region from human genomic DNA in pFN210A, N-terminal IL-6-HaloTag; HEK-293 with RTP1S, G-alpha-olf, G-gamma-13, GloSensor-22F
T1 sequence (Q9Y3N9 1-320 M81V): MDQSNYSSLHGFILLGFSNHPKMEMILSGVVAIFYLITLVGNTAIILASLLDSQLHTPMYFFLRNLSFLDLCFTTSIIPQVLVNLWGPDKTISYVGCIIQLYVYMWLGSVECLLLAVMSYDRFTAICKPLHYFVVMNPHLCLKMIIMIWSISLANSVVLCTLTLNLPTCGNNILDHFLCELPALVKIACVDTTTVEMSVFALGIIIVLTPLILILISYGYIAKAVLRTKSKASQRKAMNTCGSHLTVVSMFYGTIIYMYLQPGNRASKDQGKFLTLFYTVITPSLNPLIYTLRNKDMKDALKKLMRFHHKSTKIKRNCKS
An excerpt: (§1) GloSensor cAMP luminescence, HEK-293 on OR2W1

The target of assay [2] is T2, OR2W1 (Homo sapiens, UniProt Q9Y3N9, D296N).
T2 construct: full coding region from human genomic DNA in pFN210A, N-terminal IL-6-HaloTag; HEK-293 with RTP1S, G-alpha-olf, G-gamma-13, GloSensor-22F
T2 sequence (Q9Y3N9 1-320 D296N): T1 sequence (Q9Y3N9 1-320 M81V) with V81M, D296N
From the text: as §1

Assay [3] addresses T3, OR2W1 (Homo sapiens, UniProt Q9Y3N9).
T3 construct: full coding region from human genomic DNA in pFN210A, N-terminal IL-6-HaloTag; HEK-293 with RTP1S, G-alpha-olf, G-gamma-13, GloSensor-22F
T3 sequence (Q9Y3N9 1-320): T1 sequence (Q9Y3N9 1-320 M81V) with V81M
From the text: as §1

Assay [4] concerns the target T4, OR10A6 (Homo sapiens, UniProt Q8NH74, A117V/L287P/V140G).
T4 construct: full coding region from human genomic DNA in pFN210A, N-terminal IL-6-HaloTag; HEK-293 with RTP1S, G-alpha-olf, G-gamma-13, GloSensor-22F
T4 sequence (Q8NH74 1-314 A117V/V140G/L287P): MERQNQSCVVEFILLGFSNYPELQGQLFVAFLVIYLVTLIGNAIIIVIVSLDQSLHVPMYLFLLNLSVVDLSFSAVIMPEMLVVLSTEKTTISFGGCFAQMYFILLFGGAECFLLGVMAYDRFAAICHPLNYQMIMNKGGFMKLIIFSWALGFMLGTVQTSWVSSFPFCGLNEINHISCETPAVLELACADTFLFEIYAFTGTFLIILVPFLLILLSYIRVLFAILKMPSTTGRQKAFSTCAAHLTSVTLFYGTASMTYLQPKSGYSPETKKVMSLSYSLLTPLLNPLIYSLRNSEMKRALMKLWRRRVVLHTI
An excerpt: (§2) GloSensor cAMP luminescence, HEK-293 on OR10A6

The target of assay [5] is T5, OR10A6 (Homo sapiens, UniProt Q8NH74, L287P).
T5 construct: full coding region from human genomic DNA in pFN210A, N-terminal IL-6-HaloTag; HEK-293 with RTP1S, G-alpha-olf, G-gamma-13, GloSensor-22F
T5 sequence (Q8NH74 1-314 L287P): T4 sequence (Q8NH74 1-314 A117V/V140G/L287P) with V117A, G140V
From the text: as §2

Assay [6] deals with T6, OR10A6 (Homo sapiens, UniProt Q8NH74).
T6 construct: full coding region from human genomic DNA in pFN210A, N-terminal IL-6-HaloTag; HEK-293 with RTP1S, G-alpha-olf, G-gamma-13, GloSensor-22F
T6 sequence (Q8NH74 1-314): T4 sequence (Q8NH74 1-314 A117V/V140G/L287P) with V117A, G140V, P287L
From the text: as §2

Setting [7] is: read-out: Z4-11Al EC50 [μmol/L] ^a.

Molecules are shown by their SMILES. Substitutions are numbered along the chain they refer to. Read-outs that look alike come from different tables or passages of the source.

With `CCCC/C=C\CCC=O` [Z4-9Al, (Z)-4-nonenal], the EC50 in assay [1] (read-out: Z4-9Al) was 142 ± 92.4 µM; in assay [2] (read-out: Z4-9Al) it was 91.8 ± 46.2 µmol/L; in assay [3] (read-out: Z4-9Al), 119 ± 23.1 µmol/L; in assay [4], more than 1000 µM; in assay [5] (read-out: Z4-9Al), 41.1 ± 14.2 µmol/L; in assay [6], more than 1000 µM.
For `CCCCCC/C=C\CCC=O` [Z4-11Al, (Z)-4-undecenal], the EC50 in assay [1] (read-out: EC50) is more than 1000 µM; in assay [2] (setting [7]), 40.4 ± 12 µmol/L; in assay [3] (setting [7]), 65.1 ± 35.8 µmol/L; in assay [4] it was more than 1000 µM; in assay [5] (setting [7]), 28.2 ± 12.6 µmol/L; in assay [6], more than 1000 µM.
Consider `CCCC/C=C\CCCCC=O` [Z6-11Al, (Z)-6-undecenal], for which the EC50 is more than 1000 µM in assay [1] (read-out: EC50); 138 ± 55 µmol/L in assay [2] (read-out: Z6-11Al); 104 ± 27 µmol/L in assay [3] (read-out: Z6-11Al); more than 1000 µM in assay [4]; 34.8 ± 9.21 µmol/L in assay [5] (read-out: Z6-11Al); more than 1000 µM in assay [6].
